This note sets out measurements from US9913817B2, “Methods for preventing or reducing colon carcinogenesis” (Nogra Pharma Limited, priority 2008, dated 2018).

Common to all, as to type: cell-based
Assay [1] concerns HCT116 A2.1 cells. As to the kind of experiment: EGFP-based mutation rate / replication fidelity assay (Example 3). As for the experimental part: A EGFP-based assay to determine the changes in mutation rate upon incubation with various concentrations of the compounds was used to test whether compounds improve the replication fidelity. Briefly, 1×10^3 EGFP negative HCT116 A2.1 cells were sorted into 24-well plates on a FACS Aria. 24 hours later cells were treated with the compounds for a period of 7 days and the mutant fraction was measured by flow cytometry.

Assay [2] concerns HCT116 A2.1 cells. Briefly: EGFP-based mutation rate assay at a (CA)13 repeat (Example 4). Conditions: FIG. 4. The method, then: A EGFP-based assay similar to Example 3 was used to determine the changes in mutation rate upon incubation with various concentrations of disclosed compounds and to test whether the compounds improve the replication fidelity. A EGFP based assay was used to determine the changes in mutation rate at a (CA)13 repeat upon incubation with various concentrations of the compounds. Briefly, 1×10^3 EGFP negative HCT116 A2.1 cells were sorted into 24-well plates on a FACS Aria. 24 hours later cells were treated with the compounds for a period of 7 days. The total cell number (c) and the EGFP-positive fraction (mutant fraction (MF)) were analyzed by flow cytometry. The mutation rate (m/(CA)13/generation (gen) was estimated by m=MF/(gen+1) and gen=log 2(c/1000×cloning efficiency). The transient mutant (M1) and definitive mutant (M2) cells were distinguished.

The test system of a further assay is HCT116 cells. As to the kind of experiment: Cell cycle analysis by BrdU staining, HCT116. The settings on record: 10 mM-40 mM; 72 hour treatment. As for the experimental part: BrdU staining was used to analyze cell cycle changes in HCT116 and HT29 cells upon 72 hour treatment with compound 39. Data represent the mean values of 3 independent experiments (* indicates a p<0.05 compared to control)

For assay [3], the system named is superoxide (O2−) released by activated neutrophils (PMN). Briefly: Superoxide scavenging, O2− assay with PMA-activated neutrophils, 90 min time course (Example 2). Conditions: at the investigated concentrations; 100 nM PMA; measured every 15 min for 90 min; FIG. 2A/2B. The method, then:
Compounds 14 and 34 were tested for their potential to scavenge superoxide (O2^−) released by activated neutrophils (PMN) using a standardized O2^− assay, similar to Example 1. Activated neutrophils (PMN) were used as O2^− donors. Briefly, 1×10^6 freshly isolated neutrophils were activated with 100 nM phorbol-myristate-acetate (PMA). The O2^− release was measured every 15 min for a 90 min period by lucigenin amplified chemiluminescence on a luminometer. Either non-activated PMNs or activated PMNs incubated with superoxide dismutase (2000 U/ml, SOD) was used as a control. Experiments were carried out in triplicates

`CCOC(Cc1ccc(N)cc1)C(=O)O` (racemic) [compound 39, (±)-2-ethoxy-3-(4′-aminophenyl) propionic acid]: the “cell growth (in words)” value in the assay on HCT116 A2.1 cells [1] (20 mM, 7 days) is on record as “reduced cell growth”. For the same compound, in the assay on HCT116 A2.1 cells [1] (20 mM, FIG. 3C, comparable to the effect of aspirin), the “effect on M1 (in words)” value was “increase of M1”. In the assay on HCT116 A2.1 cells [1] (7 days, FIG. 3C), the “effect on mutant fraction M1 or M2 (in words)” value is “did not reduce the mutant fraction M1 or M2”. The “number of M1 (transient mutant) cells (in words)” value with HCT116 A2.1 cells [2] (10 mM up to 40 mM, p<0.05) was “significantly lowered the number of M1 cells”. The “permanent mutant M2 population (in words)” value with HCT116 A2.1 cells [2] (40 mM) is “significant reduction”. In the assay with HCT116 cells, the “cell cycle distribution (in words)” value was “did not induce a significant change”.
For `COc1ccc(N)cc1C(=O)NO` [compound 14], the “superoxide scavenging properties (in words)” value in assay [3] is on record as “significant scavenging properties”.
`CC1(C)OC(=O)c2cc(N)ccc2O1` [compound 28]: the “changes in mutation rate (in words)” value with HCT116 A2.1 cells [1] (concentrations up to 1 mM, FIG. 3B) is given as “does not appear to cause significant changes”.
